Reference: US20230285405A1, “Pharmaceuticals for Treating or Preventing Nidoviruses and Picornaviruses” (priority 2020, published 2023)
Read-outs that look alike come from different tables or passages of the source.

How the values were obtained:
OC43 = assay: Drug screening: OC43 nucleoprotein staining in infected A549-mRuby cells; type: cell-based, human beta coronavirus OC43; conditions: for activity at 10 µM: Betacoronavirus 1, OC43, 96 h
Procedure, shortened: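 Repurposing screen: drugs at 10 μM final added 1 h after OC43 infection (MOI 0.3) of H2B-mRuby A549 cells, 4-day incubation at 33° C. Cell counts imaged at day 0 and day 4; nucleoprotein staining per cell normalized to untreated infected wells, hit threshold >3 SD in duplicate screens, non-toxic.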

A549-mRuby cells = assay: Drug screening: effect on cell growth (cell number day 4 / day 0); conditions: 10 μM drug; for Growth_1: number of cells at day 4 divided by number of cells at day 0 / toxic_1: repeat #1; for Growth_2: number of cells at day 4 divided by number of cells at day 0 / toxic_2: repeat #2
Procedure, shortened: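 Growth was scored as day 4/day 0 cell count from images of OC43-infected (MOI 0.3) A549-mRuby nuclear-reporter cells. Compounds were added at 10 μM final after a 1 h infection at 33° C, followed by 4 days of culture at 33° C in two independent screens.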

SARS-CoV-2 = SARS-CoV-2 plaque titers (progeny production); type: cell-based, SARS-CoV-2 (nCoV/Washington/1/2020); conditions: 10 μM drug for 2 hours, MOI 0.5, supernatant collected 2 days after
Description: For SARS-CoV-2 plaque titers, cell supernatants from the infection described above were serially diluted (10-fold steps were used) and used to infect Vero E6 cells for 1 hour. Inoculum was removed and 1.25% methylcellulose DMEM solution was added to the cells and incubated for 3 days. Plates were fixed in 1:10 formalin for 1 hour, stained with crystal violet for 1 hour and were counted to determine plaque forming units (PFU)/ml.
The effect of several drugs on the production of viable progeny viruses was evaluated. Cells were treated with 10 μM of the drugs for 2 hours, infected at an MOI of 0.5 and the supernatant collected 2 days after for titration (FIG. 2C). Cepharanthine and azelastine completely eliminated SARS-CoV-2 progeny production (>5-logs decrease), while flupenthixol and desloratidine reduced viral titers by about 2-logs. Ultimately, the screen identified 20 safe-in-human drugs that are able to inhibit both OC43 and SARS-CoV-2 infection in vitro.

| Compound | hit_1 (OC43; 10 μM drug, repeat #1) | hit_2 (OC43; 10 μM drug, repeat #2) | activity at 10 µM (OC43; 10 μM drug, MOI 0.3, 4 days, OC43 staining normalized to no-drug controls, mean of the two screen repeats, read-out: OC43_mean) | activity at 10 µM (OC43; 10 μM drug, MOI 0.3, 4 days, normalized to no-drug controls in the same plate, repeat #1, read-out: OC43_1: % staining of OC43 in screen repeat #1) | activity at 10 µM (OC43; 10 μM drug, MOI 0.3, 4 days, normalized to no-drug controls in the same plate, repeat #2, read-out: OC43_2: % staining of OC43 in screen repeat #2) | Growth_1: number of cells at day 4 divided by number of cells at day 0 (A549-mRuby cells) | toxic_1 (A549-mRuby cells) | Growth_2: number of cells at day 4 divided by number of cells at day 0 (A549-mRuby cells) | toxic_2 (A549-mRuby cells) | decrease of SARS-CoV-2 viral titers (progeny production) (SARS-CoV-2) | OC43_1: % staining of OC43 in screen repeat #1 (OC43) | OC43_2: % staining of OC43 in screen repeat #2 (OC43) | hit_1 (OC43) | hit_2 (OC43) | OC43_mean (OC43; 10 μM drug, MOI 0.3, 4 days, OC43 staining normalized to no-drug controls, mean of the two screen repeats) |
| --- | --- | --- | --- | --- | --- | --- | --- | --- | --- | --- | --- | --- | --- | --- | --- |
| Clc1ccc2c(c1)CCc1cccnc1C2=C1CCNCC1 [Desloratadine] | 1 | 1 | 19.3% | 13.2% | 25.4% | 4.8 | 0 | 4.4 | 0 | about 2 logs | – | – | – | – | – |
| Cl.Cl.OCCN1CCN(CCC=C2c3ccccc3Sc3ccc(C(F)(F)F)cc32)CC1 (mixture of isomers) [Flupenthixol dihydrochloride] | – | – | – | – | – | 2.1 | 0 | 3.3 | 0 | about 2 logs | 8.7% | 33.3% | 1 | 1 | 21.0% |
